# Key:
# [1] = molecular target: T1, SorC (Penicillium rubens, UniProt B6HN76); assay: X-ray crystal structure, […] Å; type: binding; settings: flavin out conformation; without sorbicillin
# T1 construct: monomer
# [2] = molecular target: T2, SorD (Penicillium rubens, UniProt B6HNK6); assay: X-ray crystal structure, […] Å; type: binding; settings: covalent; attached to His78; without sorbicillin
# T2 construct: C-terminal His6 tag, endogenous signal peptide (residues 5-22 partly seen in structure), secreted from Aspergillus niger; N-glycosylated; ~50 kDa theoretical, 61 kDa measured; monomer; FAD covalent at His78
# [3] = molecular target: T1, SorC; assay: enzyme kinetics; type: biochemical; settings: coenzyme; hydroxylation of sorbicillin
# [4] = molecular target: T1, SorC; assay: microscale thermophoresis; type: binding
# [5] = molecular target: T2, SorD; assay: microscale thermophoresis; type: binding
# [6] = molecular target: T3, SorC (Penicillium rubens, UniProt B6HN76, R201A); assay: microscale thermophoresis; type: binding
# T3 construct: monomer
# T3 sequence (B6HN76 whole entry R201A): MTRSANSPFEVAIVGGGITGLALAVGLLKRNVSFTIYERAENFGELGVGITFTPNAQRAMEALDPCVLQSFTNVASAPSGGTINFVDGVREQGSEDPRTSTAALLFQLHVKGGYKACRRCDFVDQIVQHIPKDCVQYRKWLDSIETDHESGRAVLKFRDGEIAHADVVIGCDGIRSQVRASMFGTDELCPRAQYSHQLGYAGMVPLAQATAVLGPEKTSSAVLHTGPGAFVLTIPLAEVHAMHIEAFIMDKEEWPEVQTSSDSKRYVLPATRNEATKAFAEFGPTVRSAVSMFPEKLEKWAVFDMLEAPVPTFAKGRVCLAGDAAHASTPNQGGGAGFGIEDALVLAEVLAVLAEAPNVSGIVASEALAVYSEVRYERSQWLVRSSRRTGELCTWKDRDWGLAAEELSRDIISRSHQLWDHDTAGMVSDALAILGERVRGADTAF
# T1 sequence (B6HN76 whole entry): as the sequence (B6HN76 whole entry R201A) above, with A201R counted along it
# T2 sequence (B6HNK6 whole entry, the tested form may be a part): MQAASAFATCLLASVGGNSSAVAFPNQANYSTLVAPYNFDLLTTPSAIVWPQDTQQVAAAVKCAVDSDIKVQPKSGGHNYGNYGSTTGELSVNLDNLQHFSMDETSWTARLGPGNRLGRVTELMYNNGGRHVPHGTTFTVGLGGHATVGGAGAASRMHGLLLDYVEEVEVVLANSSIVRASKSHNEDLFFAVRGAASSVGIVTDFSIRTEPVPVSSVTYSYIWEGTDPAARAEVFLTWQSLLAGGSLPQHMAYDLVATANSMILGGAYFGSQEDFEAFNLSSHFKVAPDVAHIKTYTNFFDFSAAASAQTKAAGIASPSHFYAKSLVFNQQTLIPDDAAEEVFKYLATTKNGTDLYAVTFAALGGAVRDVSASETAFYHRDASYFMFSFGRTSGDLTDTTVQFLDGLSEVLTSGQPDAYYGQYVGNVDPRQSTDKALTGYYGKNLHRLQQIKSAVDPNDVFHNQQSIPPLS
smiles,measurement,setting,value
Cc1cc2nc3c(=O)[nH]c(=O)nc-3n(C[C@H](O)[C@H](O)[C@H](O)COP(=O)(O)OP(=O)(O)OC[C@H]3O[C@@H](n4cnc5c(N)ncnc54)[C@H](O)[C@@H]3O)c2cc1C [FAD],"X-ray crystal structure, 1.4 Å",[1],SorC without sorbicillin shows that the oxidized flavin is already in the out conformation
same,"X-ray crystal structure, 1.55 Å",[2],"SorD, where the FAD is covalently attached to residue His78"
NC(=O)C1=CN([C@@H]2O[C@H](COP(=O)(O)OP(=O)(O)OC[C@H]3O[C@@H](n4cnc5c(N)ncnc54)[C@H](O)[C@@H]3O)[C@@H](O)[C@H]2O)C=CC1 [NADH],catalytic efficiency,[3],"both NADH and NADPH were accepted as coenzymes, with NADH having a higher overall catalytic efficiency"
"C/C=C/C=C/C(=O)c1cc(C)c(O)c(C)c1O [compound 1, sorbicillin]",Kd,[4],940 ± 93 nM
same,Kd,[5],1200 ± 1600 nM
same,Kd,[6],12.6 ± 9.7 µM
NC(=O)C1=CN([C@@H]2O[C@H](COP(=O)(O)OP(=O)(O)OC[C@H]3O[C@@H](n4cnc5c(N)ncnc54)[C@H](OP(=O)(O)O)[C@@H]3O)[C@@H](O)[C@H]2O)C=CC1 [NADPH],catalytic efficiency,[3],both NADH and NADPH were accepted as coenzymes

# Source: paper PMC11934079, “Structural and Mechanistic Characterization of the Flavin-Dependent Monooxygenase and Oxidase Involved in Sorbicillinoid Biosynthesis” (ACS Chemical Biology, 2025)
